The subject of this test is guinea-pig urinary bladder (GPB) cells. Put plainly: Membrane hyperpolarization (MHP) assay, DiBAC(4)3 dye, FLIPR. The conditions noted are these: Cavia porcellus; for Emax: maximal steady-state hyperpolarization in GPB cells, normalized to response with 10 μM P1075 (=100%); for EC50: membrane hyperpolarization in GPB cells, concentration eliciting 50% of the maximal response of the test sample. It is filed as cell-based. On the procedure: Compounds were evaluated for potassium channel opening activity using primary cultured guinea-pig urinary bladder (GPB) cells.
For the preparation of urinary bladder smooth muscle cells, urinary bladders were removed from male guinea-pigs (Hartley, Charles River, Wilmington, Mass.) weighing 300-400 g and placed in ice-cold Ca^2+-free Krebs solution (Composition, mM: KCl, 2.7; KH2PO4, 1.5; NaCl, 75; Na2HPO4, 9.6; Na2HPO4.7H2O, 8; MgSO4, 2; glucose, 5; HEPES, 10; pH 7.4). Cells were isolated by enzymatic dissociation as previously described with minor modifications in (Klockner, U. and Isenberg, G., Pflugers Arch. 1985, 405, 329-339), hereby incorporated by reference. The bladder was cut into small sections and incubated in 5 mL of the Kreb's solution containing 1 mg/mL collagenase (Sigma, St. Louis, Mo.) and 0.2 mg/mL pronase (Calbiochem, La Jolla, Calif.) with continuous stirring in a cell incubator for 30 minutes. The mixture was then centrifuged at 1300×g for 5 minutes, and the pellet resuspended in Dulbecco's PBS (GIBCO, Gaithersburg, Md.) and recentrifuged to remove residual enzyme. The cell pellet was resuspended in 5 mL growth media (composition: Dulbecco's modified Eagle's medium supplemented with 10% fetal bovine serum, 100 units/mL penicillin, 100 units/mL streptomycin and […] amphotericin B) and further dissociated by pipetting the suspension through a flame-polished Pasteur pipette and passing it through a polypropylene mesh membrane (Spectrum, Houston, Tex.). The cell density was adjusted to 100,000 cells/mL by resuspension in growth media. Cells were plated in clear-bottomed black 96-well plates (Packard) for membrane potential studies at a density of 20,000 cells/well and maintained in a cell incubator with 90% air: 10% CO2 until confluent. Cells were confirmed to be of smooth muscle type by cytoskeletal staining using a monoclonal mouse anti human-α-smooth muscle actin (Biomeda, Foster City, Calif.).
Functional activity at potassium channels was measured by evaluating changes in membrane potential using the bis-oxonol dye DiBAC(4)3 (Molecular Probes) in a 96-well cell-based kinetic assay system, Fluorescent Imaging Plate Reader (FLIPR) (K. S. Schroeder et al., J. Biomed. Screen., v. 1 pp. 7581 (1996)), hereby incorporated by reference. DiBAC(4) is an anionic potentiometric probe which partitions between cells and extracellular solution in a membrane potential-dependent manner. With increasing membrane potential (for example, K^+ depolarization), the probe further partitions into the cell; this is measured as an increase in fluorescence due to dye interaction with intracellular lipids and proteins. Conversely, decreasing membrane potential (hyperpolarization by potassium channel openers) evokes a decrease in fluorescence.
Confluent guinea-pig urinary bladder cells cultured in black clear-bottomed 96-well plates were rinsed twice with […] assay buffer (composition, mM: HEPES, 20; NaCl, 120; KCl, 2; CaCl2, 2; MgCl2, 1; glucose, 5; pH 7.4 at 25° C.) containing 5 μM DiBAC(4) and incubated with […] of the buffer in a cell incubator for 30 minutes at 37° C. to ensure dye distribution across the membrane. After recording the baseline fluorescence for 5 minutes, the reference or test compounds, prepared at 10 times the concentration in the assay buffer, were added directly to the wells. Changes in fluorescence were monitored for an additional 25 minutes. Hyperpolarization responses were corrected for any background noise and were normalized to the response observed with 10 μM of the reference compound P1075, N″-cyano-N-(tert-pentyl)-N′-(3-pyridinyl)guanidine, which was assigned as 100%. P1075 is a potent opener of smooth muscle KATP channels (Quast et al., Mol. Pharmacol., v. 43 pp. 474-481 (1993)) and was prepared using the procedures described in (Manley, J. Med. Chem. (1992) 35, 2327-2340), hereby incorporated by reference. […]

Molecule `Cn1[nH]c(=O)c2c1NC1=C(C(=O)CC1)C2c1ccc(F)c(Br)c1` (centres unmarked) [Example 1, 4-(3-bromo-4-fluorophenyl)-1-methyl-1,2,4,6,7,8-hexahydrocyclopenta[b]pyrazolo[4,3-e]pyridine-3,5-dione] came in with an Emax of 91% and an EC50 of 550 nM.
`O=C1CCC2=C1C(c1ccc(F)c(Br)c1)c1c([nH][nH]c1=O)N2` (centres unmarked) [Example 2, 4-(3-bromo-4-fluorophenyl)-1,2,4,6,7,8-hexahydrocyclopenta[b]pyrazolo[4,3-e]pyridine-3,5-dione] gave a maximal effect (Emax) of 90% and an EC50 of 2770 nM.
The corresponding values for `O=C1CCCC2=C1C(c1ccc(F)c(Br)c1)c1c([nH][nH]c1=O)N2` (centres unmarked) [Example 3, 4-(3-bromo-4-fluorophenyl)-4,7,8,9-tetrahydro-1H-pyrazolo[3,4-b]quinoline-3,5(2H,6H)-dione] are 82% and 1720 nM.
The corresponding values for `CCn1[nH]c(=O)c2c1NC1=C(C(=O)CC1)C2c1ccc(F)c(Br)c1` (centres unmarked) [Example 4, 4-(3-bromo-4-fluorophenyl)-1-ethyl-1,2,4,6,7,8-hexahydrocyclopenta[b]pyrazolo[4,3-e]pyridine-3,5-dione] are 103% and 270 nM.
Turning to `CC(C)(C)n1[nH]c(=O)c2c1NC1=C(C(=O)CC1)C2c1ccc(F)c(Br)c1` (centres unmarked) [Example 5, 4-(3-bromo-4-fluorophenyl)-1-tert-butyl-1,2,4,6,7,8-hexahydrocyclopenta[b]pyrazolo[4,3-e]pyridine-3,5-dione], the EC50 was above 10000 nM.
Take `O=C1CCC2=C1C(c1ccc(F)c(Br)c1)c1c(n(-c3ccccn3)[nH]c1=O)N2` (centres unmarked) [Example 6, 4-(3-bromo-4-fluorophenyl)-1-(2-pyridinyl)-1,2,4,6,7,8-hexahydrocyclopenta[b]pyrazolo[4,3-e]pyridine-3,5-dione]: the EC50 was above 10000 nM.
Molecule `Cn1[nH]c(=O)c2c1NC1=C(C(=O)CC1)C2c1ccc(OC(F)(F)F)cc1` (centres unmarked) [Example 7, 1-methyl-4-[4-(trifluoromethoxy)phenyl]-1,2,4,6,7,8-hexahydrocyclopenta[b]pyrazolo[4,3-e]pyridine-3,5-dione] showed an EC50 above 10000 nM.
For `Cc1ccc(C2C3=C(CCC3=O)Nc3c2c(=O)[nH]n3C)cc1Br` (centres unmarked) [Example 8, 4-(3-bromo-4-methylphenyl)-1-methyl-1,2,4,6,7,8-hexahydrocyclopenta[b]pyrazolo[4,3-e]pyridine-3,5-dione], the Emax worked out at 83% and the EC50 is 480 nM.
For `Cn1[nH]c(=O)c2c1NC1=C(C(=O)CC1)C2c1ccc(F)c(C(F)(F)F)c1` (centres unmarked) [Example 9, 4-[4-fluoro-3-(trifluoromethyl)phenyl]-1-methyl-1,2,4,6,7,8-hexahydrocyclopenta[b]pyrazolo[4,3-e]pyridine-3,5-dione], in that order: 89% and 680 nM.
For `Cn1[nH]c(=O)c2c1NC1=C(C(=O)CC1)C2c1ccc(Cl)c([N+](=O)[O-])c1` (centres unmarked) [Example 10, 4-(4-chloro-3-nitrophenyl)-1-methyl-1,2,4,6,7,8-hexahydrocyclopenta[b]pyrazolo[4,3-e]pyridine-3,5-dione], in that order: 90% and 2350 nM.
For `Cc1ccc(C2C3=C(CCC3=O)Nc3c2c(=O)[nH]n3C)cc1I` (centres unmarked) [Example 11, 4-(3-iodo-4-methylphenyl)-1-methyl-1,2,4,6,7,8-hexahydrocyclopenta[b]pyrazolo[4,3-e]pyridine-3,5-dione], in that order: 109% and 530 nM.
`Cn1[nH]c(=O)c2c1NC1=C(C(=O)CC1)C2c1ccc(F)c(I)c1` (centres unmarked) [Example 12, 4-(4-fluoro-3-iodophenyl)-1-methyl-1,2,4,6,7,8-hexahydrocyclopenta[b]pyrazolo[4,3-e]pyridine-3,5-dione] displayed an Emax of 101% and an EC50 of 320 nM.
Molecule `Cn1[nH]c(=O)c2c1NC1=C(C(=O)CC1)C2c1ccc(Cl)c(Cl)c1` (centres unmarked) [Example 13, 4-(3,4-dichlorophenyl)-1-methyl-1,2,4,6,7,8-hexahydrocyclopenta[b]pyrazolo[4,3-e]pyridine-3,5-dione] returned an Emax of 101% and an EC50 of 670 nM.
In the case of `Cn1[nH]c(=O)c2c1NC1=C(C(=O)CC1)C2c1ccc(F)c(-c2ccco2)c1` (centres unmarked) [Example 14, 4-[4-fluoro-3-(2-furyl)phenyl]-1-methyl-1,2,4,6,7,8-hexahydrocyclopenta[b]pyrazolo[4,3-e]pyridine-3,5-dione], the EC50 was above 10000 nM.
The molecule `Cn1[nH]c(=O)c2c1NC1=C(C(=O)CC1)C2c1csc([N+](=O)[O-])c1` (centres unmarked) [Example 15, 1-methyl-4-(5-nitro-3-thienyl)-1,2,4,6,7,8-hexahydrocyclopenta[b]pyrazolo[4,3-e]pyridine-3,5-dione] returned an Emax of 58% and an EC50 of 7700 nM.
The molecule `Cn1[nH]c(=O)c2c1NC1=C(C(=O)CC1)C2c1ccc2nonc2c1` (centres unmarked) [Example 16, 4-(2,1,3-benzoxadiazol-5-yl)-1-methyl-1,2,4,6,7,8-hexahydrocyclopenta[b]pyrazolo[4,3-e]pyridine-3,5-dione] gave an EC50 above 10000 nM.
With `Cn1[nH]c(=O)c2c1NC1=C(C(=O)CC1)C2c1ccc2nsnc2c1` (centres unmarked) [Example 17, 4-(2,1,3-benzothiadiazol-5-yl)-1-methyl-1,2,4,6,7,8-hexahydrocyclopenta[b]pyrazolo[4,3-e]pyridine-3,5-dione], the EC50 was above 10000 nM.
`Cn1[nH]c(=O)c2c1NC1=C(C(=O)CCC1)C2c1ccc(F)c(Br)c1` (centres unmarked) [Example 18, 4-(3-bromo-4-fluorophenyl)-1-methyl-4,7,8,9-tetrahydro-1H-pyrazolo[3,4-b]quinoline-3,5(2H,6H)-dione] showed an Emax of 80% and an EC50 of 1970 nM.
In turn, `Cn1[nH]c2c(c1=O)C(c1ccc(F)c(Br)c1)C1=C(CCC1=O)N2` (centres unmarked) [Example 19, 4-(3-bromo-4-fluorophenyl)-2-methyl-1,2,4,6,7,8-hexahydrocyclopenta[b]pyrazolo[4,3-e]pyridine-3,5-dione] gave an EC50 above 10000 nM.
In turn, `O=C1CCC2=C1C(c1ccc(F)c(Br)c1)c1c([nH]n(-c3ccccc3)c1=O)N2` (centres unmarked) [Example 20, 4-(3-bromo-4-fluorophenyl)-2-phenyl-1,2,4,6,7,8-hexahydrocyclopenta[b]pyrazolo[4,3-e]pyridine-3,5-dione] registered an Emax of 48% and an EC50 above 10000 nM.
Molecule `Cn1[nH]c(=O)c2c1NC1=C(C2c2ccc(F)c(Br)c2)S(=O)(=O)CC1` (centres unmarked) [Example 21, 4-(3-bromo-4-fluorophenyl)-1-methyl-1,2,4,6,7,8-hexahydro-3H-pyrazolo[3,4-b]thieno[2,3-e]pyridin-3-one 5,5-dioxide] displayed an EC50 above 10000 nM.
`Cn1[nH]c(=O)c2c1NC1=C(C(=O)C(C)(C)CC1)C2c1ccc(F)c(Br)c1` (centres unmarked) [Example 22, 4-(3-bromo-4-fluorophenyl)-1,6,6-trimethyl-4,7,8,9-tetrahydro-1H-pyrazolo[3,4-b]quinoline-3,5(2H,6H)-dione] had an Emax of 105% and an EC50 of 330 nM.
`Cn1[nH]c(=O)c2c1NC1=C(C(=O)C(C)(C)CC1)C2c1ccc(F)c(I)c1` (centres unmarked) [Example 23, 4-(4-fluoro-3-iodophenyl)-1,6,6-trimethyl-4,7,8,9-tetrahydro-1H-pyrazolo[3,4-b]quinoline-3,5(2H,6H)-dione] returned an Emax of 90% and an EC50 of 70 nM.

Broadly, the Emax is the size of the effect at its maximum, as opposed to the concentration needed. Broadly, the EC50 is the concentration that produces a half-maximal response.

The values above are taken from patent US6780872B2, “Tricyclic dihydropyrazolone and tricyclic dihydroisoxazolone potassium channel openers” (Abbott Laboratories, priority 2000, dated 2004).
